Test results taken from patent publication US20210179578A1, “OX1 ANTAGONISTS” (Heptares Therapeutics Limited, priority 2017, published 2021).

The compounds below were run against T1, human OX1 receptor (Homo sapiens, UniProt O43613) (assay: IPone accumulation assay, CHO cells expressing OX1 (antagonism of orexin A)). Details: IPone accumulation, CHO human OX1, orexin A EC80 challenge (~20 nM); read-out: fpKb average OX1 (converted).
T1 sequence (O43613 1-425): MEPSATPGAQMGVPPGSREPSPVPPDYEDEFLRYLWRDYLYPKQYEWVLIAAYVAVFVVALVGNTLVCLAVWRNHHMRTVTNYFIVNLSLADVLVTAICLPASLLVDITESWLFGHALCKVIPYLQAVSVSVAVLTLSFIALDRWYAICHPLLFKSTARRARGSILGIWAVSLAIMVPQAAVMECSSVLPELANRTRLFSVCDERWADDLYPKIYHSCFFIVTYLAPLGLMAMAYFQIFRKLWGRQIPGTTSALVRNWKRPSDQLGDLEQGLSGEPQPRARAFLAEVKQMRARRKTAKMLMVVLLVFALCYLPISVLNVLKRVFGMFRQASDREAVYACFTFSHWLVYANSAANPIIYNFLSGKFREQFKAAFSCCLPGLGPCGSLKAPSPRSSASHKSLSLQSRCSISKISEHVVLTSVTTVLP
Type: cell-based
Experimental: Generation of CHO stable cell lines expressing the human OX1R and OX2R. Stable cell lines for the human OX1R and OX2R receptors were generated through the transfection of CHO cells using the transfection reagent Genejuice (Novagen number 70967) and cDNA coding for either the human OX1R or OX2R. Cells were cultured in Sigma Nutrient Mixture F-12 Ham media (catalog number N6658) supplemented with 10% heat-inactivated FBS. Forty-eight hours after transfection, cells were harvested and placed under geneticin selection by culturing in Sigma Nutrient Mixture F-12 Ham media supplemented with 10% heat-inactivated FBS and geneticin (ThermoFisher Catalog number: 10131035). Selection of the final stable clone for each receptor was made on the basis of receptor expression, assay signal to noise and robustness though increasing passage. Selected clones for the human OX1R and OX2R were then frozen down into liquid nitrogen using Cell Freezing Medium-DMSO (Sigma-Aldrich catalog number: C6164). IPone accumulation assay. A CHO cell line stably expressing either human OX1 or OX2 receptor was used with the IPone HTRF assay kit (CisBio: Part #62[…]) to measure receptor activation. The assay was optimised to measure the ability (potency; fpKb) of antagonists to reduce agonist (orexin A)-induced inositol phosphate turnover. Briefly, cells were plated onto half area 96-well white walled plates at a density of 12,500 cells/well. Sixteen hours post-plating cell growth media was replaced with antagonist concentration-response curve diluted in stimulation buffer (supplied with the kit). Cells were incubated in a humidified incubator (37° C.) for 30 min before an EC80 challenge concentration ( 20 nM (OX1) and 40 nM (OX2)) of orexin A (Tocris catalogue number 1455). After 30 min stimulation in a humidified incubator (37° C.) the assay was terminated by the addition of detection mixture as per manufacturer's instructions. The concentration of compound which reduced orexin-A stimulated turnover of inositol phosphates by 50% (IC50) was calculated by fitting to a four parameter sigmoidal dose response curve. The IC50 values were converted to fpKB values using the orexin A pEC50 value estimated on each plate as well as the challenge concentration interpolated from the orexin A control curve.

Structure (SMILES) | Kb
COc1ncc(N2CCc3c(F)cccc3N(Cc3c(C)cc(F)cc3F)C2=O)cc1S(C)(=O)=O [Example 18, 1-(2,4-difluoro-6-methylbenzyl)-6-fluoro-3-[6-methoxy-5-(methylsulfonyl)pyridin-3-yl]-1,3,4,5-tetrahydro-2H-1,3-benzodiazepin-2-one] | 10 nM
COc1nc(OC)c(C(C)(F)F)cc1N1CCc2c(F)cccc2N(Cc2c(F)cc(Br)cc2F)C1=O [Example 23, 1-(4-bromo-2,6-difluorobenzyl)-3-[5-(1,1-difluoroethyl)-2,6-dimethoxypyridin-3-yl]-6-fluoro-1,3,4,5-tetrahydro-2H-1,3-benzodiazepin-2-one] | 50.1 nM
COCc1cc(F)c(CN2C(=O)N(c3cc(C(C)(F)F)c(OC)nc3OC)CCc3c(F)cccc32)c(F)c1 [Example 24, 3-[5-(1,1-difluoroethyl)-2,6-dimethoxypyridin-3-yl]-1-[2,6-difluoro-4-(methoxymethyl)benzyl]-6-fluoro-1,3,4,5-tetrahydro-2H-1,3-benzodiazepin-2-one] | 63.1 nM
COc1cc(F)c(CN2C(=O)N(c3cc(S(C)(=O)=O)c(OC)nc3OC)CCc3c(F)cccc32)c(F)c1 [Example 25, 1-(2,6-difluoro-4-methoxybenzyl)-3-[2,6-dimethoxy-5-(methylsulfonyl)pyridin-3-yl]-6-fluoro-1,3,4,5-tetrahydro-2H-1,3-benzodiazepin-2-one] | 10 nM
Cc1ccc(N2CCc3c(F)cccc3N(Cc3c(F)cc(Br)cc3F)C2=O)cc1S(C)(=O)=O [Example 27, 1-(4-bromo-2,6-difluorobenzyl)-6-fluoro-3-[4-methyl-3-(methylsulfonyl)phenyl]-1,3,4,5-tetrahydro-2H-1,3-benzodiazepin-2-one] | 126 nM
CCCc1cc(F)c(CN2C(=O)N(c3ccc(C)c(S(C)(=O)=O)c3)CCc3c(F)cccc32)c(F)c1 [Example 28, 1-(2,6-difluoro-4-propylbenzyl)-6-fluoro-3-[4-methyl-3-(methylsulfonyl)phenyl]-1,3,4,5-tetrahydro-2H-1,3-benzodiazepin-2-one] | 79.4 nM
Cc1cc(C)c(S(C)(=O)=O)cc1N1CCc2ccccc2N(Cc2c(F)cc(Br)cc2F)C1=O [Example 29, 1-(4-bromo-2,6-difluorobenzyl)-3-[2,4-dimethyl-5-(methylsulfonyl)phenyl]-1,3,4,5-tetrahydro-2H-1,3-benzodiazepin-2-one] | 39.8 nM
Cc1cc(C)c(S(C)(=O)=O)cc1N1CCc2ccccc2N(Cc2c(F)cc(OC(C)C)cc2F)C1=O [Example 30, 1-[2,6-difluoro-4-(propan-2-yloxy)benzyl]-3-[2,4-dimethyl-5-(methylsulfonyl)phenyl]-1,3,4,5-tetrahydro-2H-1,3-benzodiazepin-2-one] | 39.8 nM
Cc1cc(C)c(S(C)(=O)=O)cc1N1CCc2c(F)cccc2N(Cc2c(F)cc(Br)cc2F)C1=O [Example 31, 1-(4-bromo-2,6-difluorobenzyl)-3-[2,4-dimethyl-5-(methylsulfonyl)phenyl]-6-fluoro-1,3,4,5-tetrahydro-2H-1,3-benzodiazepin-2-one] | 20 nM
Cc1ncc(N2CCc3c(F)cccc3N(Cc3c(F)cc(Br)cc3F)C2=O)cc1C(C)(F)F [Example 32, 1-(4-bromo-2,6-difluorobenzyl)-3-[5-(1,1-difluoroethyl)-6-methylpyridin-3-yl]-6-fluoro-1,3,4,5-tetrahydro-2H-1,3-benzodiazepin-2-one] | 63.1 nM
COCc1cc(F)c(CN2C(=O)N(c3cnc(C)c(C(C)(F)F)c3)CCc3c(F)cccc32)c(F)c1 [Example 33, 3-[5-(1,1-difluoroethyl)-6-methylpyridin-3-yl]-1-[2,6-difluoro-4-(methoxymethyl)benzyl]-6-fluoro-1,3,4,5-tetrahydro-2H-1,3-benzodiazepin-2-one] | 15.8 nM
CCCc1cc(F)c(CN2C(=O)N(c3cnc(C)c(C(C)(F)F)c3)CCc3c(F)cccc32)c(F)c1 [Example 34, 3-[5-(1,1-difluoroethyl)-6-methylpyridin-3-yl]-1-(2,6-difluoro-4-propylbenzyl)-6-fluoro-1,3,4,5-tetrahydro-2H-1,3-benzodiazepin-2-one] | 79.4 nM
Cc1ncc(N2CCc3c(F)cccc3N(Cc3c(F)cc(Br)cc3F)C2=O)cc1OC(F)F [Example 37, 1-(4-bromo-2,6-difluorobenzyl)-3-[5-(difluoromethoxy)-6-methylpyridin-3-yl]-6-fluoro-1,3,4,5-tetrahydro-2H-1,3-benzodiazepin-2-one] | 20 nM

Same assay, conditions: fpKb average OX1, IPone accumulation, CHO human OX1, orexin A EC80 challenge (~20 nM)

Structure (SMILES) | Kb
CSc1cc(N2CCc3c(F)cccc3N(Cc3c(F)cc(Br)cc3F)C2=O)ccc1C [Example 26, 1-(4-bromo-2,6-difluorobenzyl)-6-fluoro-3-[4-methyl-3-(methylsulfanyl)phenyl]-1,3,4,5-tetrahydro-2H-1,3-benzodiazepin-2-one] | 50.1 nM
